Measurements reported in patent US20060110407A1 (priority 2001, published 2006).

Tests used:
Vaccinia strain IHD-J = test system: Vaccinia strain IHD-J; set-up: species or system Balb/c mice; details: mouse, in vivo
[1] = test system: camelpox, cowpox, monkeypox, and vaccinia viruses; details: cited from earlier work

Row | SMILES | Mean (number of pocks per tail) (Vaccinia strain IHD-J) | Mean difference compared to negative control (Saline) (Vaccinia strain IHD-J) | effectiveness in treating Orthopoxvirus infections [1]
1 | Nc1ccn(C[C@@H](CO)OCP(=O)(O)O)c(=O)n1 [Cidofovir ™, Cidofovir] | 24.2 | −17.7 | effective
2 | CC(=O)OCC(CCn1cnc2cnc(N)nc21)COC(C)=O [famciclovir] | – | – | effective
3 | COc1c(C)c2c(c(O)c1C/C=C(\C)CCC(=O)O)C(=O)OC2 [mycophenolic acid] | – | – | effective
4 | Nc1nc2c(ncn2CCC(CO)CO)c(=O)[nH]1 [penciclovir] | – | – | effective
5 | NC(=O)c1ncn([C@@H]2O[C@H](CO)[C@@H](O)[C@H]2O)n1 [ribavirin] | – | – | effective
